Test results taken from PubChem BioAssay (NCI).
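Cells were grown in 96-well plates and exposed to each compound for 48 hours at five concentrations; endpoints were interpolated linearly between bracketing concentrations, or set to the highest concentration if not reached. Abbreviation: GI50, concentration required for 50% inhibition of growth. Definition used: TGI = concentration required for complete inhibition of growth.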

What was measured:
Experiment in all cases: DTP human tumour cell line panel, 48 h
OVCAR-4 ovarian = test system: OVCAR-4 ovarian
A549 NSCLC = test system: A549 NSCLC
K-562 leukemia = test system: K-562 leukemia
TK-10 renal = test system: TK-10 renal
SK-MEL-5 melanoma = test system: SK-MEL-5 melanoma
CAKI-1 renal = test system: CAKI-1 renal
NCI-H460 lung = test system: NCI-H460 lung
HCT-15 colon = test system: HCT-15 colon
SK-MEL-28 melanoma = test system: SK-MEL-28 melanoma
UACC-257 melanoma = test system: UACC-257 melanoma
MDA-MB-231 breast = test system: MDA-MB-231 breast
SW-620 colon = test system: SW-620 colon
DU-145 prostate = test system: DU-145 prostate
OVCAR-5 ovarian = test system: OVCAR-5 ovarian
NCI/ADR-RES ovarian = test system: NCI/ADR-RES ovarian
COLO 205 colon = test system: COLO 205 colon
PC-3 prostate = test system: PC-3 prostate
ACHN renal = test system: ACHN renal
M14 melanoma = test system: M14 melanoma
SNB-75 CNS = test system: SNB-75 CNS
SN12C renal = test system: SN12C renal
NCI-H522 lung = test system: NCI-H522 lung
SK-MEL-2 melanoma = test system: SK-MEL-2 melanoma
786-0 renal = test system: 786-0 renal
U251 CNS = test system: U251 CNS
SK-OV-3 ovarian = test system: SK-OV-3 ovarian
MOLT-4 leukemia = test system: MOLT-4 leukemia
MDA-MB-435 = test system: MDA-MB-435
RPMI-8226 leukemia = test system: RPMI-8226 leukemia
SF-268 CNS = test system: SF-268 CNS
A498 renal = test system: A498 renal
KM12 colon = test system: KM12 colon
HOP-62 NSCLC = test system: HOP-62 NSCLC
EKVX NSCLC = test system: EKVX NSCLC
SF-295 CNS = test system: SF-295 CNS
HCC-2998 colon = test system: HCC-2998 colon
HCT-116 colon = test system: HCT-116 colon
SNB-19 CNS = test system: SNB-19 CNS
HT29 colon = test system: HT29 colon
UACC-62 melanoma = test system: UACC-62 melanoma
BT-549 breast = test system: BT-549 breast
UO-31 renal = test system: UO-31 renal
HOP-92 NSCLC = test system: HOP-92 NSCLC
NCI-H23 lung = test system: NCI-H23 lung
NCI-H226 lung = test system: NCI-H226 lung
MCF7 breast = test system: MCF7 breast
OVCAR-3 ovarian = test system: OVCAR-3 ovarian
OVCAR-8 ovarian = test system: OVCAR-8 ovarian
T-47D breast = test system: T-47D breast
LOX IMVI melanoma = test system: LOX IMVI melanoma
SR leukemia = test system: SR leukemia
CCRF-CEM leukemia = test system: CCRF-CEM leukemia
RXF 393 renal = test system: RXF 393 renal
SF-539 CNS = test system: SF-539 CNS
HL-60(TB) leukemia = test system: HL-60(TB) leukemia
MALME-3M melanoma = test system: MALME-3M melanoma
IGROV1 ovarian = test system: IGROV1 ovarian
HS 578T breast = test system: HS 578T breast

## S=c1oc(CCCCCCCCc2nn(CNc3ccccc3)c(=S)o2)nn1CNc1ccccc1
OVCAR-4 ovarian
  TGI: > 100 µM
A549 NSCLC
  TGI: > 100 µM
K-562 leukemia
  TGI: > 100 µM
TK-10 renal
  TGI: > 100 µM
SK-MEL-5 melanoma
  TGI: > 100 µM
CAKI-1 renal
  TGI: > 100 µM
NCI-H460 lung
  TGI: > 100 µM
HCT-15 colon
  TGI: > 100 µM
SK-MEL-28 melanoma
  TGI: > 100 µM
UACC-257 melanoma
  TGI: > 100 µM
MDA-MB-231 breast
  TGI: > 100 µM
SW-620 colon
  TGI: > 100 µM
DU-145 prostate
  TGI: > 100 µM
OVCAR-5 ovarian
  TGI: > 100 µM
NCI/ADR-RES ovarian
  TGI: > 100 µM
COLO 205 colon
  TGI: > 100 µM
PC-3 prostate
  TGI: > 100 µM
ACHN renal
  TGI: > 100 µM
M14 melanoma
  TGI: > 100 µM
SNB-75 CNS
  TGI: > 100 µM
SN12C renal
  TGI: > 100 µM
NCI-H522 lung
  TGI: > 100 µM
SK-MEL-2 melanoma
  TGI: > 100 µM
786-0 renal
  TGI: > 100 µM
U251 CNS
  TGI: > 100 µM
SK-OV-3 ovarian
  TGI: > 100 µM
MOLT-4 leukemia
  TGI: > 100 µM
MDA-MB-435
  TGI: > 100 µM
RPMI-8226 leukemia
  TGI: > 100 µM
SF-268 CNS
  TGI: > 100 µM
A498 renal
  TGI: > 100 µM
KM12 colon
  TGI: > 100 µM
HOP-62 NSCLC
  TGI: > 100 µM
EKVX NSCLC
  TGI: > 100 µM
SF-295 CNS
  TGI: > 100 µM
HCC-2998 colon
  TGI: > 100 µM
HCT-116 colon
  TGI: > 100 µM
SNB-19 CNS
  TGI: > 100 µM
HT29 colon
  TGI: > 100 µM
UACC-62 melanoma
  TGI: > 100 µM
BT-549 breast
  TGI: > 100 µM
UO-31 renal
  TGI: > 100 µM
HOP-92 NSCLC
  TGI: > 100 µM
NCI-H23 lung
  TGI: > 100 µM
NCI-H226 lung
  TGI: > 100 µM
MCF7 breast
  TGI: > 100 µM

## COc1ccc(OC)c2c1C=C[C@H](C1(C)SCCS1)C2C(C)=O (stereo partly drawn)
OVCAR-4 ovarian
  TGI: > 100 µM
A549 NSCLC
  TGI: > 100 µM
K-562 leukemia
  TGI: > 100 µM
TK-10 renal
  TGI: > 100 µM
SK-MEL-5 melanoma
  TGI: 47.1 µM
CAKI-1 renal
  TGI: 90 µM
NCI-H460 lung
  TGI: 76.5 µM
OVCAR-3 ovarian
  TGI: 61.5 µM
OVCAR-8 ovarian
  TGI: > 100 µM
T-47D breast
  TGI: > 100 µM
HCT-15 colon
  TGI: > 100 µM
SK-MEL-28 melanoma
  TGI: > 100 µM
UACC-257 melanoma
  TGI: > 100 µM
MDA-MB-231 breast
  TGI: > 100 µM
SW-620 colon
  TGI: > 100 µM
LOX IMVI melanoma
  TGI: 81.8 µM
DU-145 prostate
  TGI: 97.9 µM
SR leukemia
  TGI: 59.2 µM
OVCAR-5 ovarian
  TGI: 65.6 µM
NCI/ADR-RES ovarian
  TGI: > 100 µM
CCRF-CEM leukemia
  TGI: > 100 µM
RXF 393 renal
  TGI: 92.3 µM
SF-539 CNS
  TGI: 48.2 µM
PC-3 prostate
  TGI: > 100 µM
ACHN renal
  TGI: > 100 µM
M14 melanoma
  TGI: > 100 µM
SN12C renal
  TGI: > 100 µM
NCI-H522 lung
  TGI: 41.5 µM
786-0 renal
  TGI: > 100 µM
U251 CNS
  TGI: 73.2 µM
HL-60(TB) leukemia
  TGI: 41.3 µM
SK-OV-3 ovarian
  TGI: 70.9 µM
MOLT-4 leukemia
  TGI: 60.6 µM
MDA-MB-435
  TGI: > 100 µM
RPMI-8226 leukemia
  TGI: 58.6 µM
SF-268 CNS
  TGI: > 100 µM
A498 renal
  TGI: 78.2 µM
MALME-3M melanoma
  TGI: 89.8 µM
KM12 colon
  TGI: 99.5 µM
HOP-62 NSCLC
  TGI: > 100 µM
IGROV1 ovarian
  TGI: > 100 µM
EKVX NSCLC
  TGI: > 100 µM
SF-295 CNS
  TGI: 65.5 µM
HCC-2998 colon
  TGI: > 100 µM
HCT-116 colon
  TGI: 65.3 µM
HS 578T breast
  TGI: 45.6 µM
SNB-19 CNS
  TGI: 81.1 µM
HT29 colon
  TGI: 33.8 µM
UACC-62 melanoma
  TGI: > 100 µM
UO-31 renal
  TGI: 59.7 µM
HOP-92 NSCLC
  TGI: > 100 µM
NCI-H23 lung
  TGI: 71.6 µM
NCI-H226 lung
  TGI: 63.4 µM
MCF7 breast
  TGI: > 100 µM

## NC(=O)c1ncn(CC2(COC(=O)c3ccccc3)CCC2)n1
SNB-75 CNS
  GI50: 9.86 µM
  TGI: 92.5 µM
BT-549 breast
  GI50: 82.1 µM
